In patent publication US8916498B2, “Safening 6-(trisubstituted phenyl)-4-amino-2-pyridinecarboxylate herbicide injury on direct seeded and transplanted paddy rice” (priority 2008, dated 2014):
“And” between values parts separate entries of the source, which are not always exact repeats. Identical values can stand only once.

Assays:
ORYSA (rice) = test: Postemergence herbicidal safening in direct seeded rice, visual injury; details: for ‘M202’ ORYSA Visual Injury (%) Obs / Visual Injury (%) ‘Lemont’ ORYSA Obs: after 3 weeks
Excerpt: A=observed efficacy of active ingredient A at the same concentration as used in the mixture.
B=observed efficacy of active ingredient B at the same concentration as used in the mixture.

CYPDI = test: Postemergence herbicidal safening in direct seeded rice, visual injury on weed; format: in vivo; details: alone, after 3 weeks
SEBEX = test: as above; format: in vivo; details: alone, after 3 weeks
ECHCO = test: as above; format: in vivo; details: alone, after 3 weeks
[1] = alone, 8.75 g ae/ha, after 3 weeks (Table 14)
[2] = alone, 35 g ae/ha, after 3 weeks (Table 14)
[3] = No safener, 17.5 g ai/ha, after 3 weeks (Table 12)
[4] = alone, 17.5 g ae/ha, after 3 weeks (Table 14)
[5] = alone, 70 g ae/ha, after 3 weeks (Table 14)
[6] = No safener, 35 g ai/ha, after 3 weeks (Table 13)

## O=C(C(Cl)Cl)N1CCOC12CCCCC2 [AD67]
ORYSA (rice); safener 140 g ai/ha alone
  ORYSA Visual Injury (%) ‘Lemont’ Obs: 0%
  ORYSA Visual Injury (%) ‘M202’ Obs: 0%
ORYSA (rice); safener 280 g ai/ha alone
  ORYSA Visual Injury (%) ‘M202’ Obs: 15%

## CC(C)(SC(=O)N1CCCCC1)c1ccccc1 [Dimepiperate]
ORYSA (rice); safener 280 g ai/ha alone
  ORYSA Visual Injury (%) ‘M202’ Obs: 10%

## C#CCOC(=O)c1nc(-c2ccc(Cl)c(OC)c2F)cc(N)c1Cl [Compound 1 Propargyl Ester]
ORYSA (rice); [1]
  ORYSA Visual Injury (%) ‘Cheniere’ Obs: 55%
  ORYSA Visual Injury (%) ‘Clearfield’ Obs: 50%
  ORYSA Visual Injury (%) ‘Cocodrie’ Obs: 35%
  ORYSA Visual Injury (%) ‘Lemont’ Obs: 30%
  ORYSA Visual Injury (%) ‘M202’ Obs: 55%
  ORYSA Visual Injury (%) ‘Wells’ Obs: 10%

## CCCCOCCOC(=O)c1nc(-c2ccc(Cl)c(OC)c2F)cc(N)c1Cl [Compound 1 Et butoxy Ester]
ORYSA (rice); [2]
  ORYSA Visual Injury (%) ‘Cheniere’ Obs: 50%
  ORYSA Visual Injury (%) ‘Clearfield’ Obs: 40%
  ORYSA Visual Injury (%) ‘Cocodrie’ Obs: 50%
  ORYSA Visual Injury (%) ‘Lemont’ Obs: 50%
  ORYSA Visual Injury (%) ‘M202’ Obs: 30%
  ORYSA Visual Injury (%) ‘Wells’ Obs: 15%

## COC(=O)c1nc(-c2ccc(Cl)c(OC)c2F)cc(N)c1Cl [Compound 1 Methyl Ester]
CYPDI; 17.5 g ae/ha
  Visual Injury (%) CYPDI Obs: 100%
CYPDI; 35 g ae/ha
  Visual Injury (%) CYPDI Obs: 100%
CYPDI; 35 g ai/ha
  Visual Injury (%) CYPDI Obs: 100%
CYPDI; 70 g ae/ha
  Visual Injury (%) CYPDI Obs: 100%
CYPDI; 70 g ai/ha
  Visual Injury (%) CYPDI Obs: 100%
ORYSA (rice); No safener, 17.5 g ai/ha
  ‘M202’ ORYSA Visual Injury (%) Obs: 15.0%
ORYSA (rice); [3]
  ORYSA Visual Injury (%) ‘Cheniere’ Obs: 20%
  ORYSA Visual Injury (%) ‘Cocodrie’ Obs: 13%
  ORYSA Visual Injury (%) ‘M202’ Obs: 45%
ORYSA (rice); No safener, 35 g ai/ha
  ‘M202’ ORYSA Visual Injury (%) Obs: 35.0%
ORYSA (rice); alone, 17.5 g ae/ha
  Visual Injury (%) ‘Lemont’ ORYSA Obs: 15%
ORYSA (rice); [4]
  ORYSA Visual Injury (%) ‘Cheniere’ Obs: 85%
  ORYSA Visual Injury (%) ‘Clearfield’ Obs: 45%
  ORYSA Visual Injury (%) ‘Cocodrie’ Obs: 55%
  ORYSA Visual Injury (%) ‘Lemont’ Obs: 40%
  ORYSA Visual Injury (%) ‘M202’ Obs: 25%
  ORYSA Visual Injury (%) ‘Wells’ Obs: 10%
ORYSA (rice); alone, 35 g ae/ha
  Visual Injury (%) ‘Lemont’ ORYSA Obs: 35%
ORYSA (rice); alone, 70 g ae/ha
  Visual Injury (%) ‘Lemont’ ORYSA Obs: 45%
ORYSA (rice); alone, 70 g ai/ha
  Visual Injury (%) ‘Lemont’ ORYSA Obs: 50% and 25%
SEBEX; 17.5 g ae/ha
  Visual Injury (%) SEBEX Obs: 100%
SEBEX; 35 g ae/ha
  Visual Injury (%) SEBEX Obs: 100%
SEBEX; 35 g ai/ha
  Visual Injury (%) SEBEX Obs: 100%
SEBEX; 70 g ae/ha
  Visual Injury (%) SEBEX Obs: 100%
SEBEX; 70 g ai/ha
  Visual Injury (%) SEBEX Obs: 100%
ECHCO; 17.5 g ae/ha
  Visual Injury (%) ECHCO Obs: 99%
ECHCO; 35 g ae/ha
  Visual Injury (%) ECHCO Obs: 99%
ECHCO; 35 g ai/ha
  Visual Injury (%) ECHCO Obs: 95% and 100%
ECHCO; 70 g ae/ha
  Visual Injury (%) ECHCO Obs: 100%
ECHCO; 70 g ai/ha
  Visual Injury (%) ECHCO Obs: 99% and 100%

## Cc1ccc(NC(=O)NC(C)(C)c2ccccc2)cc1 [Daimuron, N-(4-methylphenyl)-N′-(1-methyl-1-phenylethyl)-urea]
CYPDI; 35 g ai/ha
  Visual Injury (%) CYPDI Obs: 0%
CYPDI; 70 g ai/ha
  Visual Injury (%) CYPDI Obs: 0%
CYPDI; 140 g ai/ha
  Visual Injury (%) CYPDI Obs: 0%
CYPDI; 280 g ai/ha
  Visual Injury (%) CYPDI Obs: 0%
ORYSA (rice); Safener Alone, 560 g ai/ha
  ‘M202’ ORYSA Visual Injury (%) Obs: 3.3%
ORYSA (rice); alone, 35 g ai/ha
  Visual Injury (%) ‘Lemont’ ORYSA Obs: 0%
ORYSA (rice); alone, 70 g ai/ha
  Visual Injury (%) ‘Lemont’ ORYSA Obs: 0%
ORYSA (rice); alone, 140 g ai/ha
  Visual Injury (%) ‘Lemont’ ORYSA Obs: 0%
ORYSA (rice); alone, 280 g ai/ha
  Visual Injury (%) ‘Lemont’ ORYSA Obs: 0%
SEBEX; 35 g ai/ha
  Visual Injury (%) SEBEX Obs: 0%
SEBEX; 70 g ai/ha
  Visual Injury (%) SEBEX Obs: 0%
SEBEX; 140 g ai/ha
  Visual Injury (%) SEBEX Obs: 0%
SEBEX; 280 g ai/ha
  Visual Injury (%) SEBEX Obs: 0%
ECHCO; 35 g ai/ha
  Visual Injury (%) ECHCO Obs: 5%
ECHCO; 70 g ai/ha
  Visual Injury (%) ECHCO Obs: 0%
ECHCO; 140 g ai/ha
  Visual Injury (%) ECHCO Obs: 0%
ECHCO; 280 g ai/ha
  Visual Injury (%) ECHCO Obs: 10%

## C=CCOC(=O)c1nc(-c2ccc(Cl)c(OC)c2F)cc(N)c1Cl [Compound 1 Allyl Ester]
ORYSA (rice); [4]
  ORYSA Visual Injury (%) ‘Cheniere’ Obs: 55%
  ORYSA Visual Injury (%) ‘Clearfield’ Obs: 50%
  ORYSA Visual Injury (%) ‘Cocodrie’ Obs: 30%
  ORYSA Visual Injury (%) ‘Lemont’ Obs: 25%
  ORYSA Visual Injury (%) ‘M202’ Obs: 55%
  ORYSA Visual Injury (%) ‘Wells’ Obs: 10%

## COc1c(Cl)ccc(-c2cc(N)c(Cl)c(C(=O)[O-])n2)c1F.[K+] [Compound 1 K^+ Salt]
ORYSA (rice); [1]
  ORYSA Visual Injury (%) ‘Cheniere’ Obs: 50%
  ORYSA Visual Injury (%) ‘Clearfield’ Obs: 45%
  ORYSA Visual Injury (%) ‘Cocodrie’ Obs: 30%
  ORYSA Visual Injury (%) ‘Lemont’ Obs: 40%
  ORYSA Visual Injury (%) ‘M202’ Obs: 50%
  ORYSA Visual Injury (%) ‘Wells’ Obs: 0%

## CC1(C)OC(c2ccco2)CN1C(=O)C(Cl)Cl (stereo not drawn) [Furilazole, 3-(dichloroacetyl)-5-(2-furanyl)-2,2-dimethyl-oxazolidine]
ORYSA (rice); Safener Alone, 560 g ai/ha
  ‘M202’ ORYSA Visual Injury (%) Obs: 3.3%
ORYSA (rice); safener 70 g ai/ha alone
  ORYSA Visual Injury (%) ‘Lemont’ Obs: 0%

## N#C/C(=N\OCC1OCCO1)c1ccccc1 [Oxabetrinil, (αZ)-α-[(1,3-dioxolan-2-yl)methoxyimino]-benzeneacetonitrile]
CYPDI; 35 g ai/ha
  Visual Injury (%) CYPDI Obs: 0%
CYPDI; 70 g ai/ha
  Visual Injury (%) CYPDI Obs: 0%
CYPDI; 140 g ai/ha
  Visual Injury (%) CYPDI Obs: 0%
CYPDI; 280 g ai/ha
  Visual Injury (%) CYPDI Obs: 0%
ORYSA (rice); alone, 35 g ai/ha
  Visual Injury (%) ‘Lemont’ ORYSA Obs: 0%
ORYSA (rice); alone, 70 g ai/ha
  Visual Injury (%) ‘Lemont’ ORYSA Obs: 15%
ORYSA (rice); alone, 140 g ai/ha
  Visual Injury (%) ‘Lemont’ ORYSA Obs: 0%
ORYSA (rice); alone, 280 g ai/ha
  Visual Injury (%) ‘Lemont’ ORYSA Obs: 10%
SEBEX; 35 g ai/ha
  Visual Injury (%) SEBEX Obs: 0%
SEBEX; 70 g ai/ha
  Visual Injury (%) SEBEX Obs: 0%
SEBEX; 140 g ai/ha
  Visual Injury (%) SEBEX Obs: 0%
SEBEX; 280 g ai/ha
  Visual Injury (%) SEBEX Obs: 0%
ECHCO; 35 g ai/ha
  Visual Injury (%) ECHCO Obs: 0%
ECHCO; 70 g ai/ha
  Visual Injury (%) ECHCO Obs: 0%
ECHCO; 140 g ai/ha
  Visual Injury (%) ECHCO Obs: 0%
ECHCO; 280 g ai/ha
  Visual Injury (%) ECHCO Obs: 0%

## CCCOC(=O)c1nc(-c2ccc(Cl)c(OC)c2F)cc(N)c1Cl [Compound 1 n-Propyl Ester]
ORYSA (rice); [5]
  ORYSA Visual Injury (%) ‘Cheniere’ Obs: 45%
  ORYSA Visual Injury (%) ‘Clearfield’ Obs: 60%
  ORYSA Visual Injury (%) ‘Cocodrie’ Obs: 45%
  ORYSA Visual Injury (%) ‘Lemont’ Obs: 35%
  ORYSA Visual Injury (%) ‘M202’ Obs: 55%
  ORYSA Visual Injury (%) ‘Wells’ Obs: 15%

## COC(=O)COc1ccc(Cl)c2cccnc12 [Cloquintocet Methyl Ester]
CYPDI; 280 g ae/ha
  Visual Injury (%) CYPDI Obs: 0%
ORYSA (rice); alone, 280 g ae/ha
  Visual Injury (%) ‘Lemont’ ORYSA Obs: 0%
SEBEX; 280 g ae/ha
  Visual Injury (%) SEBEX Obs: 0%
ECHCO; 280 g ae/ha
  Visual Injury (%) ECHCO Obs: 0%

## CCOC(=O)c1nc(C(Cl)(Cl)Cl)n(-c2ccc(Cl)cc2Cl)n1 [Fenchlorazole-ethyl]
ORYSA (rice); Safener Alone, 560 g ai/ha
  ‘M202’ ORYSA Visual Injury (%) Obs: 0.0%

## FC(F)(F)C(=NOCC1OCCO1)c1ccc(Cl)cc1 [Fluxofenim, 1-(4-chlorophenyl)-2,2,2-trifluoroethanone O-(1,3-dioxolan-2-ylmethyl)oxime]
ORYSA (rice); Safener Alone, 560 g ai/ha
  ‘M202’ ORYSA Visual Injury (%) Obs: 3.3%

## C=CCN(CC=C)C(=O)C(Cl)Cl [Dichlormid]
ORYSA (rice); safener 140 g ai/ha alone
  ORYSA Visual Injury (%) ‘Cheniere’ Obs: 0%
  ORYSA Visual Injury (%) ‘Cocodrie’ Obs: 0%
  ORYSA Visual Injury (%) ‘Lemont’ Obs: 0%

## CCC(C)OC(=O)COc1ccc(Cl)c2cccnc12 (stereo not drawn) [Cloquintocet 1-Methylpropyl Ester]
CYPDI; 280 g ae/ha
  Visual Injury (%) CYPDI Obs: 0%
ORYSA (rice); alone, 280 g ae/ha
  Visual Injury (%) ‘Lemont’ ORYSA Obs: 0%
SEBEX; 280 g ae/ha
  Visual Injury (%) SEBEX Obs: 0%
ECHCO; 280 g ae/ha
  Visual Injury (%) ECHCO Obs: 0%

## CC(C)OC(=O)COc1ccc(Cl)c2cccnc12 [Cloquintocet i-Propyl Ester]
CYPDI; 280 g ae/ha
  Visual Injury (%) CYPDI Obs: 0%
ORYSA (rice); alone, 280 g ae/ha
  Visual Injury (%) ‘Lemont’ ORYSA Obs: 0%
SEBEX; 280 g ae/ha
  Visual Injury (%) SEBEX Obs: 0%
ECHCO; 280 g ae/ha
  Visual Injury (%) ECHCO Obs: 0%

## CCOC(=O)COc1ccc(Cl)c2cccnc12 [Cloquintocet Ethyl Ester]
CYPDI; 280 g ae/ha
  Visual Injury (%) CYPDI Obs: 0%
ORYSA (rice); alone, 280 g ae/ha
  Visual Injury (%) ‘Lemont’ ORYSA Obs: 0%
SEBEX; 280 g ae/ha
  Visual Injury (%) SEBEX Obs: 0%
ECHCO; 280 g ae/ha
  Visual Injury (%) ECHCO Obs: 0%

## CCCCOC(=O)c1nc(-c2ccc(Cl)c(OC)c2F)cc(N)c1Cl [Compound 1 n-Butyl Ester]
ORYSA (rice); [6]
  ORYSA Visual Injury (%) ‘Cheniere’ Obs: 25%
  ORYSA Visual Injury (%) ‘Cocodrie’ Obs: 20%
  ORYSA Visual Injury (%) ‘M202’ Obs: 28%
